Patent US20120178765A1, “NOVEL GLUCOKINASE ACTIVATORS AND PROCESSES FOR THE PREPARATION THEREOF” (YUHAN CORPORATION, priority 2009, published 2012)

molecular target: T1, Glucokinase (Homo sapiens, UniProt P35557); experiment: Glucokinase activation assay (NADPH absorbance at 340 nm); assay type: biochemical; conditions: glucokinase (ProteinOne Inc.), 5 mM D(+)-glucose, 24° C., 90 minutes
T1 construct: purchased ProteinOne Inc
T1 sequence (P35557 1-465): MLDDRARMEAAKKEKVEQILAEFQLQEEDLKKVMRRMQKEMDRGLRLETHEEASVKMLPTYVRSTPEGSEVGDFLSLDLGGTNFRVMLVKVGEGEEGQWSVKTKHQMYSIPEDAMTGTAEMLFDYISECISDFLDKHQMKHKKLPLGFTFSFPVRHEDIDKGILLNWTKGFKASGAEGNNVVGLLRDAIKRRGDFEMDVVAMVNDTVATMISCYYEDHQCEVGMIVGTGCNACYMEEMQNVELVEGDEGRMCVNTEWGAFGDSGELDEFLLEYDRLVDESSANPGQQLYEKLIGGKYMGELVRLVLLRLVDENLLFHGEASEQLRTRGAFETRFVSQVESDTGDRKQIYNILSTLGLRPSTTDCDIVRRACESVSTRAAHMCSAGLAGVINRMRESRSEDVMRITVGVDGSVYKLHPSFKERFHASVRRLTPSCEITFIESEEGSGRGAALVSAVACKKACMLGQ
Outline: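 Glucokinase (100 ng/uL) coupled to G6PDH in 25 mM HEPES pH 7 with 5 mM D(+)-glucose, 1 mM ATP, 1 mM NADP; compounds added.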

Row | SMILES | EC50 [nM]
1 | CC(C)COc1cc(/C=C/c2c(F)cccc2F)cc(C(=O)Nc2nccs2)c1 [Example 72, 3-[trans-2-(2,6-difluorophenyl)vinyl]-5-isobutoxy-N-(thiazol-2-yl)-benzamide] | 121
2 | COC[C@H](C)Oc1cc(/C=C/c2ccccc2OC)cc(C(=O)Nc2ccc(C(=O)O)cn2)c1 [Example 73, 3-[trans-2-(2-methoxyphenyl)vinyl]-5-(2-methoxy-(1S)-methyl-ethoxy)-N-(nicotinic acid-6-yl)-benzamide] | 82.8
3 | COC[C@H](C)Oc1cc(/C=C/c2ccccc2[N+](=O)[O-])cc(C(=O)Nc2ccc(C(=O)O)cn2)c1 [Example 74, 3-[trans-2-(2-nitrophenyl)vinyl]-5-(2-methoxy-(1S)-methyl-ethoxy)-N-(nicotinic acid-6-yl)-benzamide] | 296
4 | COC[C@H](C)Oc1cc(/C=C/c2cccc([N+](=O)[O-])c2)cc(C(=O)Nc2ccc(C(=O)O)cn2)c1 [Example 75, 3-[trans-2-(3-nitrophenyl)vinyl]-5-(2-methoxy-(1S)-methyl-ethoxy)-N-(nicotinic acid-6-yl)-benzamide] | 165
5 | COC[C@H](C)Oc1cc(/C=C/c2ccccc2F)cc(C(=O)Nc2ccc(C(=O)O)cn2)c1 [Example 76, 3-[trans-2-(2-fluorophenyl)vinyl]-5-(2-methoxy-(1S)-methyl-ethoxy)-N-(nicotinic acid-6-yl)-benzamide] | 55.8
6 | COC[C@H](C)Oc1cc(/C=C/c2ccc(F)cc2)cc(C(=O)Nc2ccc(C(=O)O)cn2)c1 [Example 77, 3-[trans-2-(4-fluorophenyl)vinyl]-5-(2-methoxy-(1S)-methyl-ethoxy)-N-(nicotinic acid-6-yl)-benzamide] | 120
7 | COC[C@H](C)Oc1cc(/C=C/c2cccc(F)c2F)cc(C(=O)Nc2ccc(C(=O)O)cn2)c1 [Example 78, 3-[trans-2-(2,3-difluorophenyl)vinyl]-5-(2-methoxy-(1S)-methyl-ethoxy)-N-(nicotinic acid-6-yl)-benzamide] | 123
8 | COC[C@H](C)Oc1cc(/C=C/c2ccc(F)cc2F)cc(C(=O)Nc2ccc(C(=O)O)cn2)c1 [Example 79, 3-[trans-2-(2,4-difluorophenyl)vinyl]-5-(2-methoxy-(1S)-methyl-ethoxy)-N-(nicotinic acid-6-yl)-benzamide] | 95.1
9 | COC[C@H](C)Oc1cc(/C=C/c2cc(F)ccc2F)cc(C(=O)Nc2ccc(C(=O)O)cn2)c1 [Example 80, 3-[trans-2-(2,5-difluorophenyl)vinyl]-5-(2-methoxy-(1S)-methyl-ethoxy)-N-(nicotinic acid-6-yl)-benzamide] | 134

Next, values leading:

Row | EC50 [nM] | SMILES
10 | 89.8 | COC[C@H](C)Oc1cc(/C=C/c2c(F)cccc2F)cc(C(=O)Nc2ccc(C(=O)O)cn2)c1 [Example 81, 3-[trans-2-(2,6-difluorophenyl)vinyl]-5-(2-methoxy-(1S)-methyl-ethoxy)-N-(nicotinic acid-6-yl)-benzamide]
11 | 135 | COC[C@H](C)Oc1cc(CCc2ccccc2OC)cc(C(=O)Nc2ccn(C)n2)c1 [Example 93, 3-[2-(2-methoxyphenyl)ethyl]-5-(2-methoxy-(1S)-methyl-ethoxy)-N-(1-methyl-1-pyrazol-3-yl)-benzamide]
12 | 217 | COC[C@H](C)Oc1cc(CCc2ccccc2F)cc(C(=O)Nc2ccn(C)n2)c1 [Example 94, 3-[2-(2-fluorophenyl)ethyl]-5-(2-methoxy-(1S)-methyl-ethoxy)-N-(1-methyl-1-pyrazol-3-yl)-benzamide]
13 | 415 | COC[C@H](C)Oc1cc(CCc2cccc(N)c2)cc(C(=O)Nc2ccn(C)n2)c1 [Example 97, 3-[2-(3-aminophenyl)ethyl]-5-(2-methoxy-(1S)-methyl-ethoxy)-N-(1-methyl-1-pyrazol-3-yl)-benzamide]
14 | 208 | COC[C@H](C)Oc1cc(CCc2c(F)cccc2F)cc(C(=O)Nc2ccc(C(=O)O)cn2)c1 [Example 109, 3-[2-(2,6-difluorophenyl)ethyl]-5-(2-methoxy-(1S)-methyl-ethoxy)-N-(nicotinic acid-6-yl)-benzamide]
